Test results from PMC2410169, “N-hexanoyl-sphingomyelin potentiates in vitro doxorubicin cytotoxicity by enhancing its cellular influx” (British Journal of Cancer, 2004).
Like-named read-outs stand apart in the source and are kept apart here.

Legend:
[1] = system: BAEC; assay type: cell-based, bovine; conditions: for Effect on doxorubicin uptake (in words): assay as for C6-SM, Table 1
Protocol: (§1) For intracellular doxorubicin measurements, cells were cultured in flat-bottom 96-well plates. At confluence, cells were changed to a serum-free medium and exposed to 50 μM doxorubicin during 60 min (unless indicated otherwise). After washing with ice-cold PBS, cells were lysed in 1% (w v^−1) Triton X-100 in water. Native fluorescence intensities were then measured by a Perkin-Elmer Victor Wallac II fluorescence microplate reader, using λex 485 nm and λem 535 nm filters. Additional probes and drugs that were tested for cellular uptake during 60 min incubations, either in the absence or presence of lipid, were hydrazide-AF488 (35 μM, λex 485 nm, λem 535 nm), sulphorodamine-101 (400 μM, λex 355 nm, λem 620 nm), propidium iodide (300 μM, λex 355 nm, λem 535 nm), o-phtaldialdehyde (1 mM, λex 485 nm, λem 535 nm), topotecan (30 μM, λex 355 nm, λem 535 nm), epirubicin (50 μM, λex 485 nm, λem 535 nm), bisbenzimidine (10 μM, λex 355 nm, λem 460 nm), camptothecin (30 μM, λex 355 nm, λem 460 nm), daunorubicin (25 μM, λex 485 nm, λem 535 nm) and idarubicin (20 μM, λex 485 nm, λem 535 nm).

[2] = system: A431 cells; assay: Cell viability, MTT assay; assay type: cell-based, human; conditions: Homo sapiens, 60 min exposure, 48 h further culture, read-out: Doxorubicin EC50
Protocol: After centrifugation (3000 rpm, 10 min) supernatants were removed.

[3] = system: BAEC; assay: cells; conditions: Bos taurus
Protocol: For viability assessment, cells were cultured in flat-bottom 96-well plates. After experimental treatments, 100 μg of the mitochondrial dehydrogenase substrate MTT was added to each well ([Carmichael et al, 1987]). Cells were then incubated for 60 min at 37°C. After centrifugation (3000 rpm, 10 min) supernatants were removed. The precipitated blue formazan products were then dissolved in 100 μl DMSO and absorbencies were read in a Bio-Tek Instruments EL 340 photospectrometric microplate reader at 540 nm. Background absorbencies were subtracted and values from untreated control cells were set at 100% viability.
After washing away remaining extracellular drug and lipid, cells were cultured for another 48 h. Viability was then assessed by the MTT assay, which relies on the fact that only mitochondria of viable cells have the capacity to convert the MTT substrate ([Carmichael et al, 1987]).

[4] = system: kidney fibroblasts from Mrp1/Mdr1a/Mdr1b triple knockout mice; assay: Cellular doxorubicin accumulation in ABC-transporter knockout fibroblasts; assay type: cell-based; conditions: Table 2, no C6-SM, relative to control fibroblasts
Protocol: The following cell types were cultured in Dulbecco's modified Eagle's medium (DMEM) containing 10% (v v^−1) foetal calf serum: primary bovine aortic endothelial cells (BAEC; passage 14–19), kindly provided by Dr A Haimovitz-Friedman (Memorial Sloan-Kettering Cancer Center, New York City NY, USA); MCF-7, KB and A431 carcinoma cells, purchased from the American Type Culture Collection (Manassas VA, USA); SV40 large-T antigen-immortalised kidney fibroblasts from Mrp1/Mdr1a/Mdr1b triple knockout mice and control renal fibroblasts ([Wijnholds et al, 2000]; kindly provided by Dr AH Schinkel, The Netherlands Cancer Institute, Amsterdam). […] All culture media were supplemented with 100 U ml^−1 penicillin, 100 μg ml^−1 streptomycin and 4 mM L-glutamine. For intracellular doxorubicin measurements, cells were cultured in flat-bottom 96-well plates. […] After washing with ice-cold PBS, cells were lysed in 1% (w v^−1) Triton X-100 in water. Native fluorescence intensities were then measured by a Perkin-Elmer Victor Wallac II fluorescence microplate reader, using λex 485 nm and λem 535 nm filters.

[5] = system: BAEC; assay: Cellular uptake of fluorescent drugs and probes with or without C6-SM; assay type: cell-based, bovine; conditions: 10 μM C6-SM, 60 min
Protocol: as §1

[6] = Lipophilicity: 1-octanol/water partitioning; assay type: physicochemical; conditions: 1-octanol/water partition ratio
Protocol: Partitioning of 10–50 μM drug or probe was monitored in a two-phase system consisting of 1 ml 1-octanol and 1 ml water. After addition of the compound, tubes were vortexed and centrifuged (3000 rpm, 5 min, 20°C). Aliquots of both the organic and the aqueous phases were taken for fluorimetric quantification, as described under Cellular drug accumulation. As a measure of lipophilicity, the 1-octanol/water partitioning ratio was calculated for each compound and expressed on a log scale ([Washington et al, 2001]).

[7] = 10 μM lipid analogue with 50 μM doxorubicin, 60 min, control = no lipid, no ethanol, n=3

| Molecule | Doxorubicin (% of control±s.d.) [1, 7] | Effect on doxorubicin uptake (in words) [1] | Sensitivity towards C6-SM uptake enhancement [5] | also measured |
| --- | --- | --- | --- | --- |
| CCCCCCCCCC(=O)NC(CN1CCOCC1)C(O)c1ccccc1 (racemic) [PPMP] |  |  |  | Doxorubicin (% of control±s.d.) ([1]; Table 4, PPMP 30 μM, 96 h pretreatment, no C6-SM): 166.5±22.5 % of control |
| CCCCCCCCCCCCC/C=C/C(O)C(COP(=O)([O-])OCC[N+](C)(C)C)NC(C)=O (stereo not shown) [C2-sphingomyelin, N-acetyl-sphingomyelin] | 129.6±19.6 % of control | moderate effect |  |  |
| CCCCCCCCCCCCC/C=C/[C@@H](O)[C@H](CO)NC(=O)CCCCC [C6-ceramide] | 105.6±6.5 % of control | little or no effect |  |  |
| CCCCCC(=O)OCC(COP(=O)([O-])OCC[N+](C)(C)C)OC(=O)CCCCC (stereo not shown) [C6-phosphatidylcholine, dihexanoyl-phosphatidylcholine] | 101.0±28.2 % of control | completely without effect |  |  |
| CCCCCCCCCCCCC/C=C/[C@@H](O)[C@H](COP(=O)(O)O)NC(=O)CCCCCCC [C8-ceramide 1-phosphate, C8-ceramide-1-phosphate] | 116.5±20.6 % of control | little or no effect |  |  |
| COc1cccc2c1C(=O)c1c(O)c3c(c(O)c1C2=O)C[C@@](O)(C(=O)CO)C[C@@H]3O[C@H]1C[C@H](N)[C@H](O)[C@H](C)O1 [Doxorubicin, doxorubicin] |  |  |  | EC50 ([2]; A-431, A431, with C6-SM): 130 nM; EC50 ([2]; A-431, A431, without C6-SM): 1800 nM; EC50 ([3]; read-out: Doxorubicin EC50 for BAEC toxicity, absence of C6-SM, 60 min exposure, 48 h further culture): 4000 nM; EC50 ([3]; read-out: Doxorubicin EC50 for BAEC toxicity, with 10 μM C6-SM, 60 min exposure, 48 h further culture): 600 nM; Doxorubicin (% of control±s.d.) ([1]; Table 2, ATP depletion (2-deoxy-D-glucose + sodium azide, 90 min), no C6-SM): 108.2±46.7 % of control; Doxorubicin (% of control±s.d.) [4]: 101.7±14.3 % of control |
| CN(C)C(=O)CCSC(SCCC(=O)O)c1cccc(/C=C/c2ccc3ccc(Cl)cc3n2)c1 (stereo not shown) [MK571] |  |  |  | Doxorubicin (% of control±s.d.) ([1]; Table 2, MK571 12.5 μM, no C6-SM): 103.5±30.2 % of control |
| C/C=C/C[C@@H](C)C(=O)[C@H]1C(=O)N[C@@H](C(C)C)C(=O)N(C)CC(=O)N(C)[C@@H](CC(C)C)C(=O)N[C@@H](C(C)C)C(=O)N(C)[C@@H](CC(C)C)C(=O)N[C@@H](C)C(=O)N[C@H](C)C(=O)N(C)[C@@H](CC(C)C)C(=O)N(C)[C@@H](CC(C)C)C(=O)N(C)[C@@H](C(C)C)C(=O)N1C [PSC833] |  |  |  | Doxorubicin (% of control±s.d.) ([1]; Table 2, PSC833 5 μM, no C6-SM): 76.0±15.6 % of control |
| CCCCCCCCCCCCC/C=C/[C@@H](O)[C@@H](N)COP(=O)([O-])OCC[N+](C)(C)C [Sphingosinephosphorylcholine, sphingosylphosphorylcholine] | 143.2±10.0 % of control | moderate effect |  |  |
| CC[C@@]1(O)C(=O)OCc2c1cc1n(c2=O)Cc2cc3ccccc3nc2-1 [camptothecin] |  |  | mostly insensitive to C6-SM |  |
| COc1cccc2c1C(=O)c1c(O)c3c(c(O)c1C2=O)C[C@@](O)(C(C)=O)C[C@@H]3O[C@H]1C[C@H](N)[C@H](O)[C@H](C)O1 [daunorubicin] |  |  | mostly insensitive to C6-SM | Lipophilicity compared with doxorubicin [6]: significantly higher |
| COc1cccc2c1C(=O)c1c(O)c3c(c(O)c1C2=O)C[C@@](O)(C(=O)CO)C[C@@H]3O[C@H]1C[C@H](N)[C@@H](O)[C@H](C)O1 [epirubicin] |  |  | C6-SM sensitive |  |
| CC(=O)[C@]1(O)Cc2c(O)c3c(c(O)c2[C@@H](O[C@H]2C[C@H](N)[C@H](O)[C@H](C)O2)C1)C(=O)c1ccccc1C3=O [idarubicin] |  |  | mostly insensitive to C6-SM | Lipophilicity compared with doxorubicin [6]: significantly higher |
| CC[C@@]1(O)C(=O)OCc2c1cc1n(c2=O)Cc2cc3c(CN(C)C)c(O)ccc3nc2-1 [topotecan] |  |  | C6-SM sensitive |  |
| methyl-β-cyclodextrin [CDX] |  |  |  | Doxorubicin (% of control±s.d.) ([1]; Table 4, CDX 10 mM, 30 min pretreatment, no C6-SM): 113.0±28.1 % of control |
| sphingomyelin [Endogenous SM] |  | does not work |  |  |
